In US6773895B2, “Method for identifying substances which positively influence inflammatory conditions of chronic inflammatory airway diseases” (Boehringer Ingelheim Pharma KG, priority 2000, dated 2004):
Values belong to the compound of their own block, whether it stands above or below them.

Columns and labels:
human bronchi = settings: cited from earlier work
TNFα = assay: Expression of TNFα in MonoMac 6 cells after stimulation with FPRL-1 ligands (TaqMan); settings: 200 nM
Procedure: (§1) In order to examine the effects of ligands for FPRL-1, MonoMac6 cells are seeded at a density of 250,000 cells/ml in 24-well plates (with 2 ml per well), grown for 24 hours at 37° C., 5% CO2 in a humidified atmosphere before stimulation with 200 nM lipoxin A4 (Biomol), W-peptide (1 μM) (synthesized by Metabion, Martinsried), and LPS (Sigma) as a positive control. Cells are harvested at different time points, and total RNA is isolated as described above using the Qiagen RNeasy Total RNA Isolation Kit (Qiagen).
(§2) The RNA is used for Taqman analysis in order to monitor the expression of inflammatory markers like TNFα, IL-8, and MMP-12.

IL-8 = assay: Expression of IL-8 in MonoMac 6 cells after stimulation with FPRL-1 ligands (TaqMan); settings: 200 nM
Procedure: as §1, §2

MMP-12 = assay: Expression of MMP-12 in MonoMac 6 cells after stimulation with FPRL-1 ligands (TaqMan); settings: 200 nM
Procedure: as §1, §2

monocytes = settings: cited from earlier work
MonoMac6 cells = assay: Chemotaxis (migration) of MonoMac6 cells, 48-well chemotaxis chamber; assay type: cell-based, human; settings: PMA-treated MonoMac6 cells, 4 hours of migration, fold increase in migrated cells over control medium
Procedure: Since an increased invasion of macrophages in peripheral airways of COPD patients can be observed, we tested the chemotactic ability of MonoMac6 cells which serve as a cell culture model for alveolar macrophages. Chemotaxis of MonoMac6 is determined by administering different ligands for FPRL-1.
MonoMac6 cells are treated with PMA for 24-30 hours in order to induce an activation state of the cells. Cells are harvested, washed twice with RPMI 1640 without supplements, and seeded at a density of 500,000 cells/well (24-well plate) in the presence of 10 nM PMA. After 24-30 hours cells are released from the substratum by repeated rinsing with a pipet, spun down, counted and adjusted to a density of 1×10^6 cells/ml of RPMI 1640 media without supplements but in the presence of 10 nM PMA. Chemotaxis is performed in a 48-well chemotaxis chamber (Neuroprobe Inc.) and polycarbonate membranes with a pore size of 8 μm (Neuroprobe Inc.). The lower wells of the chamber are filled with 28 μl of different concentrations of lipoxin A4, W-peptide, MCP-1 as a positive control, and RPMI 1640 media without supplements (including 10 nM PMA) as a negative control. The lower wells are covered with the polycarbonate membrane and the upper compartments of the chamber are filled with 50 μl of the cell suspension (50,000 cells per well). After 4 hours of migration at 37° C., 5% CO2 the cells on the upper part of the membrane are scraped off and the cells attached at the lower part of the membrane are stained with the Diff Quik Staining Set (Dade Behring) according to the manufacturer's protocol. Stained cells are counted in 6 to 8 high power fields at a magnification of 250× with a light microscope. The migration index represents the fold increase in the number of cells migrated in response to the chemoattractant over control medium.

neutrophils = settings: cited from earlier work
FPRL-1 = assay: Expression of FPRL-1 in MonoMac6 cells after stimulation (TaqMan analysis); assay type: cell-based, human; settings: 10 nM PMA
Procedure: MonoMac6 cells are cultivated in 24-well plates in RPMI 1640 media, supplemented with 10% FCS (low endotoxin), 2 mM glutamine, 1× non-essential amino acids, 200 U/ml penicillin, 200 μg/ml streptomycin, and 5 ml OPI media supplement (Sigma). Cells are grown to a density of 600,000 cells per well (2 ml media) and stimulated with 10 nM PMA (phorbol 12-myristate 13-acetate) (Sigma), or 20 ng/ml LPS (lipopolysaccharides from Salmonella minnesota Re595) (Sigma). For smoke exposure, cells are incubated in media enriched with smoke for 10 minutes at 37° C., 5% CO2 at a density of 1×10^6 cells/ml. Enrichment of RPMI 1640 media with smoke is performed with the smoke of two cigarettes. The smoke of the cigarettes is pulled into a 50 ml syringe (about 20 volumes of a 50-ml syringe per cigarette) and then perfused into 100 ml of RPMI 1640 media without supplements. Afterwards, the pH of the smoke-enriched media is adjusted to 7.4 and the media is sterilized through a 0.2 μm filter before use. After the exposure with smoke cells are washed at least twice with RPMI 1640 in order to remove residual smoke particles. Then cells are seeded in 24-well plates with 400,000-600,000 cells per well filled with 2 ml of fresh RPMI 1640 media including the supplements mentioned above.
Both cell types are cultivated at 37° C., 5% CO2 in a humidified atmosphere and cells are harvested at various time points in order to monitor time-dependent effects. Cells are spun down and washed with PBS, resuspended in 400 μl of RLT buffer (Qiagen RNeasy Total RNA Isolation Kit) with 143 mM β-mercaptoethanol, the DNA is sheared with a 20 g needle for at least 5 times and stored at −70° C.
Total RNAs are isolated with the Qiagen RNeasy Total RNA Isolation Kit (Qiagen) according to the manufacturer's protocol. Purified RNA is digested with RNase-free DNase (Qiagen) and used for TaqMan analysis.
Taqman analysis is used to determine mRNA-levels for FPRL-1 in cell lines after treatment with and without various stimuli at different time points. Total RNA isolated from U937 cells that were treated for 3 days with […] is used in order to optimize reaction conditions for determining the mRNA-levels of FPRL-1 and setting standard curves for FPRL-1 and GAPDH (glyceraldehyde-3-phosphate dehydrogenase) as a housekeeping gene. Quantification of FPRL-1 is done with the following primers: Forward primer (rhHM63 668FP, SEQ ID NO:22), Reverse primer (hHM63 525(+)RP, SEQ ID NO:23) and TaqMan probe (rhHM63 629(−)TP, SEQ ID NO:24) labeled with reporter dye FAM at the 5′ end and quencher dye TAMRA at the 3′ end. The mRNA-levels for GAPDH are determined with a predeveloped kit for GAPDH “TaqMan GAPDH Control Reagents” (P/N 402869) from PE Applied Biosystems. The GAPDH probe is labeled with JOE as the reporter dye and TAMRA as the quencher dye. RT-PCR reactions are performed with the “TaqMan EZ RT-PCR Core Reagents” (P/N N808-0236) kit from Perkin Elmer. Standard curves for FPRL-1 and GAPDH are performed with increasing concentrations of RNA from U937 cells treated with 1 μM retinoic acid ranging from 0, 5, 10, 25, 50 to 100 ng per assay. Reaction mixes contain 1× TaqMan EZ-buffer, 3 mM Mn(Oac)2, 300 μM dATP, dCTP, dGTP, and 600 μM dUTP, 2.5 U rTth DNA polymerase, 0.25 U AmpErase UNG in a total volume of 25 μl. For analysis of FPRL-1 reaction mixes include 300 nM of rhHM63 668(−)FP and hHM63 525(+)RP and 100 nM of rhHM63 629(−)TP. The primer concentrations for determining GAPDH levels are 200 nM for each primer and 100 nM for the Taqman probe. In order to determine mRNA levels for FPRL-1 and GAPDH in human subjects and cell lines, 16 to 50 ng RNA per reaction are used. All samples are run in triplicate. The reactions are performed with “MicroAmp Optical 96-well reaction plates” sealed with “MicroAmp Optical Caps” (PE Applied Biosystems) in an ABI PRISM 7700 Sequence Detection System (PE Applied Biosystems). […]

Expression of TNFα, Fold Induction (TNFα; t 0 h): 1.00 fold
Expression of TNFα, Fold Induction (TNFα; t 3 h): 2.43 fold
Expression of IL-8, Fold Induction (IL-8; t 0 h): 1.00 fold
Expression of IL-8, Fold Induction (IL-8; t 3 h): 1.99 fold
Expression of MMP-12, Fold Induction (MMP-12; t 0 h): 1.00 fold
Expression of MMP-12, Fold Induction (MMP-12; t 3 h): 1.42 fold
Compound: CCCCC[C@H](O)/C=C/C=C\C=C\C=C\[C@@H](O)[C@@H](O)CCCC(=O)O [Lipoxin A4, lipoxin A4]
contraction of human bronchi (human bronchi): dose-dependent contraction
chemotaxis, adherence and calcium release in monocytes (monocytes): stimulates
Migration Index (MonoMac6 cells; 10 nM): 0.86
Migration Index (MonoMac6 cells; 100 nM): 1.31
Migration Index (MonoMac6 cells; 1 μM): 1.68
chemotaxis and adhesion in neutrophils (neutrophils): inhibits
transmigration through epithelial cells (neutrophils): downregulates

Compound: CCCCCCCCCCCCCC(=O)O[C@@H]1[C@@H](C)[C@@]2(O)[C@@H](C=C(CO)C[C@]3(O)C(=O)C(C)=C[C@@H]23)[C@@H]2C(C)(C)[C@]12OC(C)=O [PMA, phorbol 12-myristate 13-acetate]
ng FPRL-1 mRNA/ ng GAPDH mRNA (FPRL-1; t 0 h): 0.00 ng FPRL-1 mRNA/ ng GAPDH mRNA
ng FPRL-1 mRNA/ ng GAPDH mRNA (FPRL-1; t 1 h): 0.00 ng FPRL-1 mRNA/ ng GAPDH mRNA
ng FPRL-1 mRNA/ ng GAPDH mRNA (FPRL-1; t 3 h): 0.00 ng FPRL-1 mRNA/ ng GAPDH mRNA
ng FPRL-1 mRNA/ ng GAPDH mRNA (FPRL-1; t 12 h): 0.00 ng FPRL-1 mRNA/ ng GAPDH mRNA
ng FPRL-1 mRNA/ ng GAPDH mRNA (FPRL-1; t 24 h): 0.00 ng FPRL-1 mRNA/ ng GAPDH mRNA
ng FPRL-1 mRNA/ ng GAPDH mRNA (FPRL-1; t 48 h): 0.43 ng FPRL-1 mRNA/ ng GAPDH mRNA
ng FPRL-1 mRNA/ ng GAPDH mRNA (FPRL-1; t 72 h): 0.01 ng FPRL-1 mRNA/ ng GAPDH mRNA

Compound: CSCC[C@H](NC(=O)[C@H](Cc1ccc(O)cc1)NC(=O)[C@H](CCCCN)NC(=O)[C@@H](N)Cc1c[nH]c2ccccc12)C(=O)N[C@H](C(=O)N[C@H](CCSC)C(N)=O)C(C)C [W-peptide, W-K-Y-M-V-m]
Migration Index (MonoMac6 cells; 10 nM): 0.95
Migration Index (MonoMac6 cells; 100 nM): 1.23
Migration Index (MonoMac6 cells; 1 μM): 2.46

Compound: monocyte chemotactic protein 1 [MCP-1]
Migration Index (MonoMac6 cells; 20 ng/ml): 2.59
